Target: BACE-1 (Homo sapiens, UniProt P56817)
Experiment: BACE-1 enzyme assay
Type: biochemical
Conditions: Boc-protected compound; enzyme- and cell-based screening

Sequence of BACE-1 (P56817 46-501): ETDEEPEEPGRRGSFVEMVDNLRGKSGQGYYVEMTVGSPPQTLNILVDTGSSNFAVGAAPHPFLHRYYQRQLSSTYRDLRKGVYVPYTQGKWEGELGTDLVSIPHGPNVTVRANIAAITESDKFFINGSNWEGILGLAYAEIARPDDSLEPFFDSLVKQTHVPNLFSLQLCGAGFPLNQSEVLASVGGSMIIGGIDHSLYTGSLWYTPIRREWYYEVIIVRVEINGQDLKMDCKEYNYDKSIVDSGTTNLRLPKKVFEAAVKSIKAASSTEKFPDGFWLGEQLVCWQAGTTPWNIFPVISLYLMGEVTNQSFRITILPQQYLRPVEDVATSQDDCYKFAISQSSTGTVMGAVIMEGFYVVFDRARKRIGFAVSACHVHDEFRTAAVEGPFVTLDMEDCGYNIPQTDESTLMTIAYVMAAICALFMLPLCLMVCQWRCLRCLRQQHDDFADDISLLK

BACE-1 activity (in words): inactive
SMILES: Cc1cc2cc(c1)C(=O)N[C@H]([C@H](O)CN(Cc1cccc(C(C)C)c1)C(=O)OC(C)(C)C)CCC/C=C/CCCC2=O [Compound 27b, (R)-2-Hydroxy-2-((E)-(S)-16-methyl-2,13-dioxo-3-aza-bicyclo[12.3.1]octadeca-1(17),8,14(18),15-tetraen-4-yl)-ethyl-(3-isopropyl-benzyl)-carbamic acid tert-butyl ester]

From paper PMC4412958 (The Open Medicinal Chemistry Journal, 2015)
